Laboratory results taken from PubChem BioAssay AID256 (DTP/NCI, 2004).
Several values for one entry are separate records, joined by “and”; a condition that tells them apart may be missing. Equal values may be shown once. Toxic doses and inconclusive results are not listed. How the source made its calls: active means survival T/C of 150% or more; inactive means T/C below 125% in these data. Non-standard residues stand in square brackets, D forms with d. Residues, ends and D or L forms follow the SMILES beside them. ξ: configuration not given here. *: point of attachment. ξF = NC(Cc1ccccc1)C(=O)O; Cbz = O=C(OCc1ccccc1)*

Tested on: CD2F1 mice, L1210 leukemia ip, survival T/C
Experiment: NCI In Vivo Anticancer Drug Screen. Data for tumor model L1210 Leukemia (intraperitoneal) in CD2F1 (CDF1) mice
Details: higher = longer survival
Method in brief: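 Ratio T/C, where T is the treated-group value and C the vehicle-dosed control value, from mice implanted with a transplantable tumor.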

[1] = endpoint: mean survival time, dose: 100.0 mg/kg/injection, schedule: Q01DX009 (ip), vehicle: saline with Tween-80
[2] = endpoint: mean survival time, dose: 100.0 mg/kg/injection, schedule: Q04DX003 (ip), vehicle: saline with Tween-80
[3] = endpoint: mean survival time, dose: 200.0 mg/kg/injection, schedule: Q01DX009 (ip), vehicle: saline with Tween-80
[4] = endpoint: mean survival time, dose: 200.0 mg/kg/injection, schedule: Q04DX003 (ip), vehicle: saline with Tween-80
[5] = endpoint: mean survival time, dose: 400.0 mg/kg/injection, schedule: Q01DX009 (ip), vehicle: saline with Tween-80
[6] = endpoint: mean survival time, dose: 400.0 mg/kg/injection, schedule: Q04DX003 (ip), vehicle: saline with Tween-80
[7] = endpoint: mean survival time, dose: 100.0 mg/kg/injection, schedule: Q01DX001 (ip), vehicle: saline with Tween-80
[8] = endpoint: mean survival time, dose: 200.0 mg/kg/injection, schedule: Q01DX001 (ip), vehicle: saline with Tween-80
[9] = endpoint: mean survival time, dose: 400.0 mg/kg/injection, schedule: Q01DX001 (ip), vehicle: saline with Tween-80
[10] = endpoint: mean survival time, dose: 100.0 mg/kg/injection, schedule: Q04DX003 (ip), vehicle: saline
[11] = endpoint: mean survival time, dose: 200.0 mg/kg/injection, schedule: Q04DX003 (ip), vehicle: saline
[12] = endpoint: mean survival time, dose: 400.0 mg/kg/injection, schedule: Q04DX003 (ip), vehicle: saline
[13] = endpoint: mean survival time, dose: 25.0 mg/kg/injection, schedule: Q04DX003 (ip), vehicle: other
[14] = endpoint: mean survival time, dose: 50.0 mg/kg/injection, schedule: Q04DX003 (ip), vehicle: other
[15] = endpoint: mean survival time, dose: 12.5 mg/kg/injection, schedule: Q01DX009 (ip), vehicle: saline with Tween-80
[16] = endpoint: mean survival time, dose: 25.0 mg/kg/injection, schedule: Q01DX009 (ip), vehicle: saline with Tween-80
[17] = endpoint: mean survival time, dose: 50.0 mg/kg/injection, schedule: Q01DX009 (ip), vehicle: saline with Tween-80

Measured: T/C

CSC(=S)N(C)N
inactive: [1] 104 % of control | [2] 102 % of control | [3] 103 % of control | [4] 100 % of control | [5] 104 % of control | [6] 102 % of control

CC12CCC3C(CCC(CC(=O)O)C3(C)CC(=O)O)C1CCC2=O (configuration not stated)
inactive: [7] 98 % of control | [8] 97 % of control | [9] 97 % of control

COCC1OC(OC)C(OC(=O)c2ccccc2)C(OC(=O)c2ccccc2)C1OC (configuration not stated)
inactive: [7] 90 % of control | [8] 91 % of control | [9] 90 % of control

O=S(=O)(O)c1cncc(S(=O)(=O)O)n1
inactive: endpoint: mean survival time, dose: 100.0 mg/kg/injection, schedule: Q01DX009 (ip), vehicle: saline 90 % of control | [10] 100 % of control | endpoint: mean survival time, dose: 200.0 mg/kg/injection, schedule: Q01DX009 (ip), vehicle: saline 97 % of control | [11] 98 % of control | endpoint: mean survival time, dose: 400.0 mg/kg/injection, schedule: Q01DX009 (ip), vehicle: saline 100 % of control | [12] 93 % of control

Cc1ccc(S(=O)(=O)N/N=C/c2ccc(C(=O)O)cc2)cc1
inactive: endpoint: mean survival time, dose: 12.5 mg/kg/injection, schedule: Q04DX003 (ip), vehicle: other 101 % of control | [13] 97 % of control | [14] 106 % of control | endpoint: mean survival time, dose: 100.0 mg/kg/injection, schedule: Q04DX003 (ip), vehicle: other 95 % of control | endpoint: mean survival time, dose: 200.0 mg/kg/injection, schedule: Q04DX003 (ip), vehicle: other 95 % of control | endpoint: mean survival time, dose: 400.0 mg/kg/injection, schedule: Q04DX003 (ip), vehicle: other 106 % of control

CCCCNC(C)(C)C(SSSC(c1ccc(Cl)cc1)C(C)(C)NCCCC)c1ccc(Cl)cc1 (configuration not stated)
inactive: endpoint: mean survival time, dose: 12.0 mg/kg/injection, schedule: Q04DX003 (ip), vehicle: other 97 % of control | [13] 105 % of control | [14] 96 % of control

Cc1ccc(Sc2cccc3c2C(=O)c2c(Sc4ccc(C)cc4)cccc2C3=O)cc1
inactive: [1] 93 % of control | [3] 86 % of control

OC(CCC(O)CSc1ccccc1)CSc1ccccc1 (configuration not stated)
inactive: endpoint: mean survival time, dose: 100.0 mg/kg/injection, schedule: Q01DX009 (ip), vehicle: other 100 % of control | endpoint: mean survival time, dose: 200.0 mg/kg/injection, schedule: Q01DX009 (ip), vehicle: other 100 % of control | endpoint: mean survival time, dose: 400.0 mg/kg/injection, schedule: Q01DX009 (ip), vehicle: other 96 % of control

CS(=O)(=O)OCCBr
inactive: endpoint: mean survival time, dose: 50.0 mg/kg/injection, schedule: Q04DX003 (ip), vehicle: saline 102 % of control

CN(C)CCNCc1cn(C2CC(O)C(CO)O2)c(=O)[nH]c1=O (configuration not stated)
inactive: endpoint: mean survival time, dose: 12.5 mg/kg/injection, schedule: Q01DX005 (ip), vehicle: water 105 % of control | endpoint: mean survival time, dose: 25.0 mg/kg/injection, schedule: Q01DX005 (ip), vehicle: water 103 % of control | endpoint: mean survival time, dose: 50.0 mg/kg/injection, schedule: Q01DX005 (ip), vehicle: water 106 % of control | endpoint: mean survival time, dose: 100.0 mg/kg/injection, schedule: Q01DX005 (ip), vehicle: water 103 % of control | endpoint: mean survival time, dose: 200.0 mg/kg/injection, schedule: Q01DX005 (ip), vehicle: water 114 % of control

CCNc1ncc2ccccc2c1-c1ccc(N2CCN(CCCl)CC2)cc1
inactive: endpoint: mean survival time, dose: 25.0 mg/kg/injection, schedule: Q04DX003 (ip), vehicle: saline + alcohol 111 % of control | endpoint: mean survival time, dose: 50.0 mg/kg/injection, schedule: Q04DX003 (ip), vehicle: saline + alcohol 102 % of control | endpoint: mean survival time, dose: 100.0 mg/kg/injection, schedule: Q04DX003 (ip), vehicle: saline + alcohol 102 % of control | endpoint: mean survival time, dose: 200.0 mg/kg/injection, schedule: Q04DX003 (ip), vehicle: saline + alcohol 111 % of control

COP12(OCCO1)SC(C(F)(F)F)=C(C(F)(F)F)S2
inactive: [15] 102 % of control and 109 % of control | [16] 96 % of control and 101 % of control | [17] 100 % of control

CC(=O)c1ccc(N=Nc2c(N)nc(N)[nH]c2=O)cc1
inactive: [1] 86 % of control | [3] 105 % of control | [5] 102 % of control

CCOc1ccc(/C=C/[N+](=O)[O-])cc1
inactive: [1] 114 % of control | [2] 104 % of control | [3] 89 % of control | [4] 98 % of control | [6] 111 % of control

OC(CN1CCCCC1)c1cccs1 (configuration not stated)
inactive: endpoint: mean survival time, dose: 6.25 mg/kg/injection, schedule: Q01DX009 (ip), vehicle: saline with Tween-80 102 % of control | [15] 98 % of control | [16] 102 % of control

COC(=O)C(C(N)=O)C(=O)C1C(=O)N(c2ccccc2)N=C1C (configuration not stated)
inactive: endpoint: mean survival time, dose: 50.0 mg/kg/injection, schedule: Q04DX002 (ip), vehicle: saline with Tween-80 97 % of control | endpoint: mean survival time, dose: 100.0 mg/kg/injection, schedule: Q04DX002 (ip), vehicle: saline with Tween-80 93 % of control | endpoint: mean survival time, dose: 200.0 mg/kg/injection, schedule: Q04DX002 (ip), vehicle: saline with Tween-80 93 % of control

CCC(=O)O[C@H]1CC[C@H]2[C@@H]3C[C@H](F)C4=CC(=O)CC[C@]4(C)[C@H]3CC[C@]12C
inactive: [10] 102 % of control | [11] 95 % of control | [12] 95 % of control

CCN(CC)CCCNc1ncnc(Cl)c1C(=C(C)C)c1ccccc1
inactive: endpoint: mean survival time, dose: 100.0 mg/kg/injection, schedule: Q01DX001 (ip), vehicle: saline 97 % of control | endpoint: mean survival time, dose: 200.0 mg/kg/injection, schedule: Q01DX001 (ip), vehicle: saline 105 % of control

Cc1ccc(C(=O)c2ccccc2C(=O)O)cc1O
inactive: [2] 98 % of control | [4] 101 % of control | [6] 106 % of control

CC(=O)CC1CC2(CCC1=O)OCCO2 (configuration not stated)
inactive: [1] 102 % of control | [2] 98 % of control | [3] 96 % of control | [4] 93 % of control | [5] 100 % of control | [6] 102 % of control

O=C(Nc1nccs1)C(F)(F)F
inactive: endpoint: median survival time, dose: 50.0 mg/kg/injection, schedule: Q01DX009 (ip), vehicle: saline 100 % of control | endpoint: median survival time, dose: 100.0 mg/kg/injection, schedule: Q01DX009 (ip), vehicle: saline 108 % of control | endpoint: median survival time, dose: 200.0 mg/kg/injection, schedule: Q01DX009 (ip), vehicle: saline 108 % of control | endpoint: median survival time, dose: 400.0 mg/kg/injection, schedule: Q01DX009 (ip), vehicle: saline 109 % of control

CC(Cc1ccccc1)NC(N)=O (configuration not stated)
inactive: [15] 100 % of control | [16] 97 % of control | [17] 92 % of control

CCCCCCCCCCCCCCCCCC[N+]1(Cc2ccccc2)CCOCC1
inactive: [16] 103 % of control | [17] 115 % of control | [1] 91 % of control and 100 % of control

CC1(C)N=C(N)N=C(N)N1c1ccc(OCc2ccc(C(=O)Nc3cccc(S(=O)(=O)F)c3)cc2)c(Cl)c1
inactive: [11] 104 % of control

CCC(=O)C(C)N(C)C1CCCCC1 (configuration not stated)
inactive: [10] 100 % of control | [11] 102 % of control | [12] 96 % of control

OCC1(CO)CCCC(CO)(CO)C1O
inactive: endpoint: mean survival time, dose: 100.0 mg/kg/injection, schedule: Q04DX002 (ip), vehicle: saline 94 % of control | endpoint: mean survival time, dose: 200.0 mg/kg/injection, schedule: Q04DX002 (ip), vehicle: saline 94 % of control | endpoint: mean survival time, dose: 400.0 mg/kg/injection, schedule: Q04DX002 (ip), vehicle: saline 94 % of control

Nc1cccc2c(S(=O)(=O)O)cccc12
inactive: [10] 100 % of control | [11] 100 % of control | [12] 97 % of control

Clc1ccc(N=C(Nc2ccc(Cl)cc2)c2ccccc2)cc1
inactive: [2] 104 % of control | [4] 110 % of control | [6] 98 % of control

Nc1ncnc2[nH]ncc12
inactive: endpoint: median survival time, dose: 3.0 mg/kg/injection, schedule: Q01DX009 (ip), vehicle: saline 100 % of control and 105 % of control | endpoint: median survival time, dose: 6.0 mg/kg/injection, schedule: Q01DX009 (ip), vehicle: saline 114 % of control and 111 % of control | endpoint: median survival time, dose: 12.0 mg/kg/injection, schedule: Q01DX009 (ip), vehicle: saline 121 % of control and 111 % of control

CC(=O)OCC1OC(N2C(=O)/C(=C/c3ccc4ccccc4c3)SC2=S)C(OC(C)=O)C(OC(C)=O)C1OC(C)=O (configuration not stated)
inactive: endpoint: mean survival time, dose: 3.13 mg/kg/injection, schedule: Q01DX005 (ip), vehicle: distilled water + Tween-80 88 % of control | endpoint: mean survival time, dose: 6.25 mg/kg/injection, schedule: Q01DX005 (ip), vehicle: distilled water + Tween-80 94 % of control | endpoint: mean survival time, dose: 12.5 mg/kg/injection, schedule: Q01DX005 (ip), vehicle: distilled water + Tween-80 96 % of control | endpoint: mean survival time, dose: 25.0 mg/kg/injection, schedule: Q01DX005 (ip), vehicle: distilled water + Tween-80 98 % of control | endpoint: mean survival time, dose: 50.0 mg/kg/injection, schedule: Q01DX005 (ip), vehicle: distilled water + Tween-80 100 % of control

NC(=O)C(Cc1ccccc1)NC(=O)CNC(=O)CNC(=O)OCc1ccccc1 (stereo not drawn) (Cbz-Gly-Gly-[ξF]-NH2)
inactive: [2] 97 % of control | [4] 96 % of control | [6] 99 % of control
